Experimental data as given in PubChem BioAssay AID248 (DTP/NCI, 2004).
Several values for one entry are separate records, joined by “and”; a condition that tells them apart may be missing. Identical values can stand only once. Inconclusive results and toxic doses are left out. Rule as the data show it: active = T/C of 150% or more; inactive = T/C below 125%.

System: L1210 leukemia ip in BDF1 mice, survival T/C
Assay: NCI In Vivo Anticancer Drug Screen. Data for tumor model L1210 Leukemia (intraperitoneal) in B6D2F1 (BDF1) mice
Settings: endpoint: mean survival time, higher = longer survival
Procedure, shortened: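 Value reflects the ratio of survival in compound-treated mice to survival in vehicle-treated controls, with both groups carrying the same transplanted tumor.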

[1] = dose: 100.0 mg/kg/injection, schedule: Q04DX003 (ip), vehicle: saline with Tween-80
[2] = dose: 200.0 mg/kg/injection, schedule: Q04DX003 (ip), vehicle: saline with Tween-80
[3] = dose: 400.0 mg/kg/injection, schedule: Q04DX003 (ip), vehicle: saline with Tween-80
[4] = dose: 50.0 mg/kg/injection, schedule: Q01DX001 (ip), vehicle: saline
[5] = dose: 100.0 mg/kg/injection, schedule: Q01DX001 (ip), vehicle: saline
[6] = dose: 200.0 mg/kg/injection, schedule: Q01DX001 (ip), vehicle: saline
[7] = dose: 400.0 mg/kg/injection, schedule: Q01DX001 (ip), vehicle: saline
[8] = dose: 100.0 mg/kg/injection, schedule: Q04DX002 (ip), vehicle: Klucel (hydroxypropylcellulose) (HPC)
[9] = dose: 200.0 mg/kg/injection, schedule: Q04DX002 (ip), vehicle: Klucel (hydroxypropylcellulose) (HPC)
[10] = dose: 12.5 mg/kg/injection, schedule: Q01DX009 (ip), vehicle: saline
[11] = dose: 25.0 mg/kg/injection, schedule: Q01DX009 (ip), vehicle: saline
[12] = dose: 50.0 mg/kg/injection, schedule: Q01DX009 (ip), vehicle: saline
[13] = dose: 100.0 mg/kg/injection, schedule: Q04DX003 (ip), vehicle: Klucel (hydroxypropylcellulose) (HPC)
[14] = dose: 200.0 mg/kg/injection, schedule: Q04DX003 (ip), vehicle: Klucel (hydroxypropylcellulose) (HPC)
[15] = dose: 400.0 mg/kg/injection, schedule: Q04DX003 (ip), vehicle: Klucel (hydroxypropylcellulose) (HPC)

Measured: T/C

ClC1=CC2CCC(C2)C1Cl (stereo not given)
inactive: dose: 100.0 mg/kg/injection, schedule: Q01DX009 (ip), vehicle: saline 106 % of control | dose: 100.0 mg/kg/injection, schedule: Q04DX003 (ip), vehicle: acetone 88 % of control | dose: 200.0 mg/kg/injection, schedule: Q01DX009 (ip), vehicle: saline 102 % of control | dose: 200.0 mg/kg/injection, schedule: Q04DX003 (ip), vehicle: acetone 88 % of control | dose: 400.0 mg/kg/injection, schedule: Q01DX009 (ip), vehicle: saline 103 % of control | dose: 400.0 mg/kg/injection, schedule: Q04DX003 (ip), vehicle: acetone 90 % of control

CC1(C)C2CC=C(N3CCCCC3)C1C2 (stereo not given)
inactive: [1] 96 % of control | [2] 96 % of control | [3] 98 % of control

CCN(CC)CCOc1ccc(C=Nc2ccc(I)cc2)cc1
inactive: dose: 100.0 mg/kg/injection, schedule: Q04DX003 (ip), vehicle: other 97 % of control | dose: 200.0 mg/kg/injection, schedule: Q04DX003 (ip), vehicle: other 98 % of control | dose: 400.0 mg/kg/injection, schedule: Q04DX003 (ip), vehicle: other 95 % of control

O=C[C@@H](CO)O[C@H](C=O)c1c[nH]c(=O)[nH]c1=O
active: dose: 66.0 mg/kg/injection, schedule: Q03DX003 (ip), vehicle: saline 213 % of control | dose: 80.0 mg/kg/injection, schedule: Q04DX003 (ip), vehicle: saline 168 % of control | dose: 100.0 mg/kg/injection, schedule: Q04DX003 (ip), vehicle: saline 209 % of control | dose: 120.0 mg/kg/injection, schedule: Q04DX003 (ip), vehicle: saline 252 % of control | dose: 140.0 mg/kg/injection, schedule: Q04DX003 (ip), vehicle: saline 204 % of control | dose: 150.0 mg/kg/injection, schedule: Q03DX003 (ip), vehicle: saline 217 % of control

Cn1nc(-c2ccc([N+](=O)[O-])o2)nc1N
inactive: [4] 98 % of control | [5] 96 % of control | [6] 98 % of control | [7] 104 % of control

ClC(c1ccccc1)c1nc2ccccc2[nH]1 (stereo not given)
inactive: [5] 94 % of control | [6] 96 % of control

COC1OC2COCOC2C2OCOC12 (stereo not given)
inactive: dose: 50.0 mg/kg/injection, schedule: Q04DX002 (ip), vehicle: Klucel (hydroxypropylcellulose) (HPC) 95 % of control | [8] 98 % of control | [9] 98 % of control

Nc1cc(I)c2cccnc2c1O
inactive: dose: 6.25 mg/kg/injection, schedule: Q01DX009 (ip), vehicle: saline 101 % of control | dose: 10.0 mg/kg/injection, schedule: Q01DX015 (ip), vehicle: saline 95 % of control | [10] 96 % of control | dose: 20.0 mg/kg/injection, schedule: Q01DX015 (ip), vehicle: saline 87 % of control | [11] 102 % of control | [12] 98 % of control

Cc1ccc(S(=O)(=O)NC(C)(C)CNc2ncnc(Cl)c2N)cc1
inactive: dose: 9.5 mg/kg/injection, schedule: Q01DX001 (ip), vehicle: other 101 % of control | dose: 19.0 mg/kg/injection, schedule: Q01DX001 (ip), vehicle: other 96 % of control

Cc1c(C)c(NC(=O)/C=C/C(=O)O)c(C)c(C)c1NC(=O)/C=C\C(=O)O
inactive: dose: 100.0 mg/kg/injection, schedule: Q01DX009 (ip), vehicle: saline with Tween-80 104 % of control | dose: 200.0 mg/kg/injection, schedule: Q01DX009 (ip), vehicle: saline with Tween-80 96 % of control | dose: 400.0 mg/kg/injection, schedule: Q01DX009 (ip), vehicle: saline with Tween-80 102 % of control

C=C(C)CCCC(C)C/C=N/NC(=O)CNC(=O)C=[N+]=[N-] (stereo not given) (tested in a mixture with another compound)
inactive: dose: 50.0 mg/kg/injection, schedule: Q01DX001 (ip), vehicle: water 100 % of control | dose: 100.0 mg/kg/injection, schedule: Q01DX001 (ip), vehicle: water 93 % of control | dose: 200.0 mg/kg/injection, schedule: Q01DX001 (ip), vehicle: water 91 % of control | dose: 400.0 mg/kg/injection, schedule: Q01DX001 (ip), vehicle: water 100 % of control

CC(=O)[OH2+].CC(=O)[OH2+].[O-]c1ccc2ccccc2c1CN1CCCCC1.[O-]c1ccc2ccccc2c1CN1CCCCC1.[O]=[U+2]=[O].[O]=[U+2]=[O]
inactive: dose: 5.0 mg/kg/injection, schedule: Q01DX001 (ip), vehicle: other 105 % of control | dose: 10.0 mg/kg/injection, schedule: Q01DX001 (ip), vehicle: other 111 % of control

CC1CC(C)(C)OB(OC(C)CC(C)(C)OB2OC(C)CC(C)(C)O2)O1 (stereo not given)
inactive: [4] 102 % of control | [5] 107 % of control | [6] 96 % of control | [7] 107 % of control

Cc1ccc(S(=O)(=O)Nc2ccc(Cl)c(Cl)c2)cc1
inactive: [13] 97 % of control | [14] 96 % of control | [15] 94 % of control

C=CCc1cc(CNCC(C)O)c(O)c(OC)c1 (stereo not given)
inactive: dose: 50.0 mg/kg/injection, schedule: Q04DX003 (ip), vehicle: Klucel (hydroxypropylcellulose) (HPC) 95 % of control | [13] 93 % of control

O=C(O)/C(Br)=C\c1ccc(Br)o1
inactive: dose: 50.0 mg/kg/injection, schedule: Q01DX009 (ip), vehicle: Klucel (hydroxypropylcellulose) (HPC) 97 % of control | dose: 100.0 mg/kg/injection, schedule: Q01DX009 (ip), vehicle: Klucel (hydroxypropylcellulose) (HPC) 94 % of control | [8] 97 % of control | dose: 200.0 mg/kg/injection, schedule: Q01DX009 (ip), vehicle: Klucel (hydroxypropylcellulose) (HPC) 97 % of control | [9] 90 % of control

Cc1ccc(Nc2nc(N)nc(N)c2N)cc1Cl
inactive: dose: 100.0 mg/kg/injection, schedule: Q01DX Z (ip), vehicle: saline 104 % of control

O=c1oc2ccccc2c(O)c1C(C/C(=N/O)c1ccccc1)c1ccccc1 (stereo not given)
inactive: [1] 96 % of control | [2] 91 % of control | [3] 88 % of control

CCOC(=O)c1ccc(C(C)=O)o1
inactive: [13] 100 % of control | [14] 106 % of control | [15] 94 % of control

Nc1cc2ccccc2c2c1ccc1ccccc12
inactive: dose: 87.5 mg/kg/injection, schedule: Q04DX003 (ip), vehicle: Klucel (hydroxypropylcellulose) (HPC) 91 % of control | [13] 97 % of control | dose: 175.0 mg/kg/injection, schedule: Q04DX003 (ip), vehicle: Klucel (hydroxypropylcellulose) (HPC) 93 % of control | [14] 94 % of control | dose: 350.0 mg/kg/injection, schedule: Q04DX003 (ip), vehicle: Klucel (hydroxypropylcellulose) (HPC) 102 % of control

Clc1c(Cl)c(Cl)c([S][Pb]([c]2ccccc2)([c]2ccccc2)[c]2ccccc2)c(Cl)c1Cl
inactive: dose: 6.25 mg/kg/injection, schedule: Q01DX009 (ip), vehicle: saline with Tween-80 101 % of control | dose: 12.5 mg/kg/injection, schedule: Q01DX009 (ip), vehicle: saline with Tween-80 103 % of control | dose: 25.0 mg/kg/injection, schedule: Q01DX009 (ip), vehicle: saline with Tween-80 104 % of control and 88 % of control | dose: 25.0 mg/kg/injection, schedule: Q04DX002 (ip), vehicle: saline with Tween-80 96 % of control | dose: 50.0 mg/kg/injection, schedule: Q04DX002 (ip), vehicle: saline with Tween-80 99 % of control | dose: 100.0 mg/kg/injection, schedule: Q04DX002 (ip), vehicle: saline with Tween-80 86 % of control and 88 % of control

CCCCCCCCCCCCc1ccccc1
inactive: [4] 91 % of control | [5] 97 % of control | [6] 97 % of control | [7] 101 % of control

Cc1ccc(C(SCC(N)C(=O)O)(c2ccccc2)c2ccc(C)cc2)cc1 (stereo not given)
active: dose: 12.5 mg/kg/injection, schedule: Q01DX009 (ip), vehicle: other 152 % of control | [10] 156 % of control and 197 % of control | dose: 25.0 mg/kg/injection, schedule: Q01DX009 (ip), vehicle: other 164 % of control | [11] 179 % of control and 195 % of control
inactive: dose: 6.25 mg/kg/injection, schedule: Q01DX009 (ip), vehicle: other 124 % of control | [12] 113 % of control and 88 % of control

ClCCN1CCC2(CC1)SSC1(CCN(CCCl)CC1)S2
inactive: dose: 10.0 mg/kg/injection, schedule: Q01DX009 (ip), vehicle: saline 107 % of control | dose: 20.0 mg/kg/injection, schedule: Q01DX001 (ip), vehicle: Klucel (hydroxypropylcellulose) (HPC) 108 % of control | dose: 20.0 mg/kg/injection, schedule: Q01DX009 (ip), vehicle: saline 103 % of control | dose: 40.0 mg/kg/injection, schedule: Q01DX001 (ip), vehicle: Klucel (hydroxypropylcellulose) (HPC) 121 % of control
